Measured values reported in US12544403B2, “Methods to treat mitochondrial-associated dysfunctions or diseases” (The General Hospital Corporation, priority 2019, dated 2026).

What was measured:
Ndufs4 KO mice [1] = assay: T2-weighted brain MRI of Ndufs4 KO mice breathing CO; assay type: in vivo
Source text: (§1) Mice were housed in 80-L transparent acrylic boxes. Control chambers were provided with a constant flow of medical air at 21% FiO2. A concentration of 11% or 17% oxygen was obtained by mixing medical air with nitrogen obtained from a nitrogen generator (MAG-20; Higher Peak). A concentration of 600 ppm CO was obtained by mixing medical air with CO from a cylinder containing 2% CO (20,000 ppm) (Airgas). The total gas flow through the chamber was adjusted to maintain chamber CO2 concentrations below 0.4% (CO200; Extech). Soda lime was added to the chambers as a CO2 scavenger. The oxygen concentration was measured at the outlet port of the chamber with an O2 sensor (MiniOx 1; Ohio Medical), which was calibrated using an 8.55% O2 reference tank (Airgas). In a similar way the CO concentration was measured a CO sensor (MSA Altair PRO; MSA Safety Inc, Pittsburgh, Pa), which was calibrated using a 1000 ppm CO reference cylinder (Airgas). Oxygen levels inside the chambers were tolerated within a 0.4% offset from the target concentration by adjusting nitrogen flow as needed. Temperature was maintained at 24-26° C., and humidity was maintained at 30-70%. A standard light-dark cycle of ˜12 h light exposure was used. Mice were housed in cages with standard bedding and given unlimited access to food and water.
MRI scans of the brain were performed as previously described (Ferrari et al., 2017), using respiratory gated T2-weighted RARE (rapid acquisition of refocused echoes) MRI images acquired on a 4.7-T small animal scanner (Pharmascan; Bruker) with the following parameters: RARE factor: 10, echo time: 60 ms, repetition time: 6000 ms, Averages: 8, 192×192×24 image matrix with a voxel size of 0.130×0.130×0.7 mm. Mice were under anesthesia (isoflurane between 0.5-1.5% in room air) during the imaging procedure. Images were generated using a DICOM reader (Osirix, University of Geneva).

hemoglobin = hemoglobin (Homo sapiens, UniProt P68871+P69905); conditions: cited from earlier work
Sequence of hemoglobin (P69905 2-142 limits assumed): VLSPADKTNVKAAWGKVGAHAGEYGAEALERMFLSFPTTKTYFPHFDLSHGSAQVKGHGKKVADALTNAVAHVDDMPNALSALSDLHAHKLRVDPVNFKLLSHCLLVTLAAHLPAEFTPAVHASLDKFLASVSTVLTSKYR
Sequence of hemoglobin (P68871 2-147 limits assumed): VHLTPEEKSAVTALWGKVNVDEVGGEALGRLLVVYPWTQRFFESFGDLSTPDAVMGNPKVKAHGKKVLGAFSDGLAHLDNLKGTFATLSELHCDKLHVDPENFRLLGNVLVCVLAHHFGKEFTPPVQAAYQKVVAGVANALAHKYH

[2] = Brain tissue PO2 measurement (vestibular nuclei, optical probe); assay type: in vivo, mice; conditions: optical probe (FIG. 3G)
Description: Ndufs4^−/− and WT mice were anesthetized with Isoflurane (induction at 2-4%, maintenance at 1-1.5%), intubated, and mechanically ventilated with a tidal volume of 8 ml/kg, a respiratory rate of 110 breaths per minute and an inspired fraction of oxygen (FiO2) of 21%. Mice were placed in a prone position and the head was stabilized using a stereotaxic frame (ASI instruments, Inc., MI). After incision and dissection of the skin, an opening in the skull was performed using a micro-drill (MD-1200, Braintree Scientific, Inc., MA) and a PO2 probe was inserted at the desired location. The coordinates for the thalamic measurements were mediolateral [ML]=−1.00 mm, anterioposterior [AP]=−2.00 mm, and dorsoventral [DV]=−4.00 mm from the bregma, while the coordinates for the vestibular nuclei were ML=−1.25 mm, AP=−6.00 mm, and DV=−3.90 mm from the bregma. […] In some experiments the FiO2 was modulated over the course of the test and the brain PO2 was simultaneously measured.
(§2) Mice were housed in 80-L transparent acrylic boxes. […] The oxygen concentration was measured at the outlet port of the chamber with an O2 sensor (MiniOx 1; Ohio Medical), which was calibrated using an 8.55% O2 reference tank (Airgas). In a similar way the CO concentration was measured a CO sensor (MSA Altair PRO; MSA Safety Inc, Pittsburgh, Pa), which was calibrated using a 1000 ppm CO reference cylinder (Airgas). […]

Ndufs4 KO mice [3] = assay: Survival and body weight of Ndufs4 KO mice (Leigh syndrome model) breathing CO; assay type: in vivo
Source text: All animal work in manuscript was approved by the Subcommittee on Research Animal Care and the Institutional Animal Care and Use Committee of Massachusetts General Hospital. Ndufs4^−/− were obtained from Palmiter laboratory (University of Washington). Mice lacking Phd1 (Aragones et al., 2008), Nestin-Phd2 (Mazzone et al., 2009) and Phd3 (Bishop et al., 2008) were provided by the Carmeliet laboratory (KU Leuven). Vh1L^ch/ch mice were provided by Josef Prchal (University of Utah). Genetic crosses were performed by crossing Ndus4^+/− mice with remaining strains. Throughout this study, Ndufs4^+/+ and Ndufs4^+/− mice were indiscriminately used as healthy controls, since there is no apparent phenotypical difference between these genotypes. When possible, controls from the same genetic cross were used, in order to make comparisons between reasonably similar genetic backgrounds. Pups were genotyped and weaned from mothers at 25-30 d of age. Cages and water were changed weekly. […]
as §2

[4] = Hematocrit and COHb measurements (blood gas analyzer) in mice chronically breathing CO; assay type: in vivo; conditions: for hematocrit: after three weeks of 600 ppm CO treatment
Description: Eighty microliters of blood were collected by tail snip into a heparinized capillary. Hemoglobin concentration, hematocrit and the saturation of hemoglobin with oxygen (O2Hb) and carbon monoxide (COHb) were measured using a blood gas analyzer (ABL800 FLEX, Radiometer, Copenhagen, Denmark).
as §1

[5] = Ndufs4 KO mice exposed to CO for 2-3 months (FIG. 3H)

For [C-]#[O+] [CO, carbon monoxide], the “Leigh's disease lesions on MRI” value (Ndufs4 KO mice [1]; [5]) was “not present”, the “new brain lesions on MRI due to chronic CO treatment” value (Ndufs4 KO mice [1]; [5]) was “hyperintense lesions apparent in the caudoputamen region of the brain” and the “MRI lesions in the vestibular nucleus” value (Ndufs4 KO mice [1]; late-stage Ndufs4 KO mice, 600 ppm CO for 2-3 weeks (FIG. 3F)) was “completely reversed lesions in the vestibular nucleus”. For the same compound, the “affinity for hemoglobin relative to oxygen” value (hemoglobin) was 200 fold, the “brain PO2” value ([2]; Ndufs4 KO mice chronically breathing CO at 600 ppm in air) was 36 mmHg and the “brain PO2” value ([2]; WT mice chronically breathing CO at 600 ppm in air) was 19 mmHg. For the same compound, the median survival (Ndufs4 KO mice [3]; 600 ppm CO in room air (FIG. 3E)) was roughly 150 days, the body weight (Ndufs4 KO mice [3]; 600 ppm CO started at late-stage disease (FIG. 3D)) was “body weight gradually regained” and the hematocrit ([4]; Ndufs4 KO mice) was 76%. The hematocrit ([4]; WT mice) was 79%, the “arterial O2Hb” value ([4]; chronic, continuous 600 ppm CO in air (FIG. 3C)) was roughly 60% and the “arterial COHb” value ([4]; chronic, continuous 600 ppm CO in air, WT mice (FIG. 3C)) was roughly 40%.
